# Measured values taken from US12077503B2, “Substituted cyclic amides and their use as herbicides” (FMC CORPORATION, priority 2015, dated 2024).
# What was measured:
# Assay type in all cases: in vivo
# [1] = system: sedge, umbrella (small-flower umbrella sedge, Cyperus difformis); test: Test B flooded paddy test; conditions: Flood, 250 g ai/ha; 0 to 100 scale where 0 is no effect and 100 is complete control; 13 to 15 d
# Procedure, shortened: (§1)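 Percent control, visually estimated after 13–15 d in the greenhouse on a 0–100 basis, compares treated pots with untreated ones; compound was put into paddy water 3 cm above the soil when plants had two leaves.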
# [2] = system: ducksalad (Heteranthera limosa); test: Test B flooded paddy test; conditions: Flood, 250 g ai/ha; 0 to 100 scale where 0 is no effect and 100 is complete control; 13 to 15 d
# Procedure, shortened: as §1
# [3] = system: barnyardgrass (Echinochloa crus-galli); test: Test B flooded paddy test; conditions: Flood, 250 g ai/ha; 0 to 100 scale where 0 is no effect and 100 is complete control; 13 to 15 d
# Procedure, shortened: as §1
# rice (Oryra sativa) = test: Test B flooded paddy test; conditions: Flood, 250 g ai/ha; 0 to 100 scale where 0 is no effect and 100 is complete control; 13 to 15 d
# Procedure, shortened: as §1
# [4] = system: blackgrass (Alopecurus myosuroides); test: Test A postemergence; conditions: for Blackgrass plant response rating: 125 g ai/ha, postemergence, visual injury rating on 0 to 100 scale (0 no effect, 100 complete control), approx. 10 d; for Plant response rating, Blackgrass: Postemergence, 500 g ai/ha, 0 to 100 scale where 0 is no effect and 100 is complete control
# Procedure, shortened: (§2)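 Each rating is a visual injury score from 0 to 100 given about 10 d after treatment, judged against untreated controls kept alongside in the greenhouse. In loam soil–sand blend, seeds got a preemergence directed soil spray, while postemergence plants were 2 to 10 cm tall at spraying.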
# [5] = system: ragweed (common ragweed, Ambrosia elatior); test: Test A postemergence; conditions: for Ragweed plant response rating: 125 g ai/ha, postemergence, visual injury rating on 0 to 100 scale (0 no effect, 100 complete control), approx. 10 d; for Plant response rating, Ragweed: Postemergence, 500 g ai/ha, 0 to 100 scale where 0 is no effect and 100 is complete control
# Procedure, shortened: as §2
# [6] = system: ryegrass, Italian (Italian ryegrass, Lolium multiflorum); test: Test A postemergence; conditions: for Ryegrass, Italian plant response rating: 125 g ai/ha, postemergence, visual injury rating on 0 to 100 scale (0 no effect, 100 complete control), approx. 10 d; for Plant response rating, Ryegrass, Italian: Postemergence, 500 g ai/ha, 0 to 100 scale where 0 is no effect and 100 is complete control
# Procedure, shortened: as §2
# corn (Zea mays) = test: Test A postemergence; conditions: for Corn plant response rating: 125 g ai/ha, postemergence, visual injury rating on 0 to 100 scale (0 no effect, 100 complete control), approx. 10 d; for Plant response rating, Corn: Postemergence, 500 g ai/ha, 0 to 100 scale where 0 is no effect and 100 is complete control
# Procedure, shortened: as §2
# [7] = system: pigweed (Amaranthus retroflexus); test: Test A postemergence; conditions: for Pigweed plant response rating: 125 g ai/ha, postemergence, visual injury rating on 0 to 100 scale (0 no effect, 100 complete control), approx. 10 d; for Plant response rating, Pigweed: Postemergence, 500 g ai/ha, 0 to 100 scale where 0 is no effect and 100 is complete control
# Procedure, shortened: as §2
# Kochia (Kochia scoparia) [8] = test: Test A postemergence; conditions: for Kochia plant response rating: 125 g ai/ha, postemergence, visual injury rating on 0 to 100 scale (0 no effect, 100 complete control), approx. 10 d; for Plant response rating, Kochia: Postemergence, 500 g ai/ha, 0 to 100 scale where 0 is no effect and 100 is complete control
# Procedure, shortened: as §2
# [9] = system: wheat (Triticum aestivum); test: Test A postemergence; conditions: for Wheat plant response rating: 125 g ai/ha, postemergence, visual injury rating on 0 to 100 scale (0 no effect, 100 complete control), approx. 10 d; for Plant response rating, Wheat: Postemergence, 500 g ai/ha, 0 to 100 scale where 0 is no effect and 100 is complete control
# Procedure, shortened: as §2
# [10] = system: giant foxtail (Setaria faberii); test: Test A postemergence; conditions: for Foxtail, Giant plant response rating: 125 g ai/ha, postemergence, visual injury rating on 0 to 100 scale (0 no effect, 100 complete control), approx. 10 d; for Plant response rating, Foxtail, Giant: Postemergence, 500 g ai/ha, 0 to 100 scale where 0 is no effect and 100 is complete control
# Procedure, shortened: as §2
# [11] = system: barnyardgrass (Echinochloa crus-galli); test: Test A postemergence; conditions: for Barnyardgrass plant response rating: 125 g ai/ha, postemergence, visual injury rating on 0 to 100 scale (0 no effect, 100 complete control), approx. 10 d; for Plant response rating, Barnyardgrass: Postemergence, 500 g ai/ha, 0 to 100 scale where 0 is no effect and 100 is complete control
# Procedure, shortened: as §2
# [12] = system: Galium (catchweed bedstraw, Galium aparine); test: Test A postemergence; conditions: for Galium plant response rating: 125 g ai/ha, postemergence, visual injury rating on 0 to 100 scale (0 no effect, 100 complete control), approx. 10 d; for Plant response rating, Galium: Postemergence, 500 g ai/ha, 0 to 100 scale where 0 is no effect and 100 is complete control
# Procedure, shortened: as §2
# [13] = system: ragweed (common ragweed, Ambrosia elatior); test: Test A preemergence; conditions: Preemergence; for Plant response rating, Ragweed: 125 g ai/ha, visual injury after approximately 10 d, 0 to 100 scale where 0 is no effect and 100 is complete control; for Ragweed plant response rating (0 to 100 scale, 0 is no effect, 100 is complete control): 500 g ai/ha, visual injury approx. 10 d
# Procedure, shortened: as §2
# [14] = system: ryegrass, Italian (Italian ryegrass, Lolium multiflorum); test: Test A preemergence; conditions: Preemergence; for Plant response rating, Ryegrass, Italian: 125 g ai/ha, visual injury after approximately 10 d, 0 to 100 scale where 0 is no effect and 100 is complete control; for Ryegrass, Italian plant response rating (0 to 100 scale, 0 is no effect, 100 is complete control): 500 g ai/ha, visual injury approx. 10 d
# Procedure, shortened: as §2
# [15] = system: pigweed (Amaranthus retroflexus); test: Test A preemergence; conditions: Preemergence; for Plant response rating, Pigweed: 125 g ai/ha, visual injury after approximately 10 d, 0 to 100 scale where 0 is no effect and 100 is complete control; for Pigweed plant response rating (0 to 100 scale, 0 is no effect, 100 is complete control): 500 g ai/ha, visual injury approx. 10 d
# Kochia (Kochia scoparia) [16] = test: Test A preemergence; conditions: Preemergence; for Plant response rating, Kochia: 125 g ai/ha, visual injury after approximately 10 d, 0 to 100 scale where 0 is no effect and 100 is complete control; for Kochia plant response rating (0 to 100 scale, 0 is no effect, 100 is complete control): 500 g ai/ha, visual injury approx. 10 d
# Procedure, shortened: as §2
# [17] = system: giant foxtail (Setaria faberii); test: Test A preemergence; conditions: Preemergence; for Plant response rating, Foxtail, Giant: 125 g ai/ha, visual injury after approximately 10 d, 0 to 100 scale where 0 is no effect and 100 is complete control; for Foxtail, Giant plant response rating (0 to 100 scale, 0 is no effect, 100 is complete control): 500 g ai/ha, visual injury approx. 10 d
# Procedure, shortened: as §2
# [18] = system: barnyardgrass (Echinochloa crus-galli); test: Test A preemergence; conditions: Preemergence; for Plant response rating, Barnyardgrass: 125 g ai/ha, visual injury after approximately 10 d, 0 to 100 scale where 0 is no effect and 100 is complete control; for Barnyardgrass plant response rating (0 to 100 scale, 0 is no effect, 100 is complete control): 500 g ai/ha, visual injury approx. 10 d
# Procedure, shortened: as §2
Compound,"Plant response rating, Sedge, Umbrella [1]","Plant response rating, Ducksalad [2]","Plant response rating, Barnyardgrass [3]","Plant response rating, Rice (rice (Oryra sativa))",Blackgrass plant response rating [4],"Plant response rating, Blackgrass [4]",Ragweed plant response rating [5],"Plant response rating, Ragweed [5]","Ryegrass, Italian plant response rating [6]","Plant response rating, Ryegrass, Italian [6]",Corn plant response rating (corn (Zea mays)),"Plant response rating, Corn (corn (Zea mays))",Pigweed plant response rating [7],"Plant response rating, Pigweed [7]",Kochia plant response rating (Kochia (Kochia scoparia) [8]),"Plant response rating, Kochia (Kochia (Kochia scoparia) [8])",Wheat plant response rating [9],"Plant response rating, Wheat [9]","Foxtail, Giant plant response rating [10]","Plant response rating, Foxtail, Giant [10]",further results
O=C1NCC(c2cc(F)cc(C(F)(F)F)c2)C1C(=O)Nc1ccc(F)cc1F (stereo not drawn) [Compound 490],0,85,50,30,20,40,0,20,0,30,80,80,0,20,0,20,30,50,80,80,"Barnyardgrass plant response rating [11]: 80; Plant response rating, Barnyardgrass [11]: 80; Galium plant response rating [12]: 20; Plant response rating, Galium [12]: 40; Plant response rating, Ragweed [13]: 0; Ragweed plant response rating (0 to 100 scale, 0 is no effect, 100 is complete control) [13]: 0; Plant response rating, Ryegrass, Italian [14]: 20; Ryegrass, Italian plant response rating (0 to 100 scale, 0 is no effect, 100 is complete control) [14]: 50; Plant response rating, Pigweed [15]: 0; Pigweed plant response rating (0 to 100 scale, 0 is no effect, 100 is complete control) [15]: 0; Plant response rating, Kochia (Kochia (Kochia scoparia) [16]): 0; Kochia plant response rating (0 to 100 scale, 0 is no effect, 100 is complete control) (Kochia (Kochia scoparia) [16]): 20; Plant response rating, Foxtail, Giant [17]: 90; Foxtail, Giant plant response rating (0 to 100 scale, 0 is no effect, 100 is complete control) [17]: 90; Plant response rating, Barnyardgrass [18]: 80; Barnyardgrass plant response rating (0 to 100 scale, 0 is no effect, 100 is complete control) [18]: 90"
O=C1NCC(c2cc(F)cc(Cl)c2)C1C(=O)Nc1ccccc1F (stereo not drawn) [Compound 491],0,40,0,0,20,50,0,20,0,30,60,90,0,20,0,20,30,60,80,80,"Barnyardgrass plant response rating [11]: 90; Plant response rating, Barnyardgrass [11]: 80; Galium plant response rating [12]: 0; Plant response rating, Galium [12]: 30; Plant response rating, Ragweed [13]: 0; Ragweed plant response rating (0 to 100 scale, 0 is no effect, 100 is complete control) [13]: 0; Plant response rating, Ryegrass, Italian [14]: 20; Ryegrass, Italian plant response rating (0 to 100 scale, 0 is no effect, 100 is complete control) [14]: 30; Plant response rating, Pigweed [15]: 0; Pigweed plant response rating (0 to 100 scale, 0 is no effect, 100 is complete control) [15]: 0; Plant response rating, Kochia (Kochia (Kochia scoparia) [16]): 0; Kochia plant response rating (0 to 100 scale, 0 is no effect, 100 is complete control) (Kochia (Kochia scoparia) [16]): 20; Plant response rating, Foxtail, Giant [17]: 90; Foxtail, Giant plant response rating (0 to 100 scale, 0 is no effect, 100 is complete control) [17]: 90; Plant response rating, Barnyardgrass [18]: 90; Barnyardgrass plant response rating (0 to 100 scale, 0 is no effect, 100 is complete control) [18]: 90"
